Biological target: FGFR3 kinase (Homo sapiens (Human), UniProt P22607, K650E)
Assay: FGFR3 kinase inhibition assay (radiometric filter binding / LanthaScreen TR-FRET)
Type: biochemical
Settings: read-out: rating (FGFR3 kinase IC50)
Experimental: Enzyme activities were measured by mixing 10 μL of a 3-fold concentrated compound solution or control with 10 μL of the corresponding substrate mixture (peptidic substrate, ATP and [γ^33P]ATP). The reactions were initiated by addition of 10 μL of a 3-fold concentrated solution of the respective enzyme in assay buffer.
Filter binding (FB) method: FB assays were carried out in 96-well plates at room temperature for 10 min in a finial volume of 30 μL including the components as indicated in section above. […] After spotting, vacuum was connected and each well rinsed with 200 μL 0.5% H3PO4. Free membranes were removed and washed 4 times on a shaker with 1% H3PO4 and once with ethanol. Membranes were dried and overlaid with addition of 10 μL/well of a scintillation fluid. The plates were eventually sealed and counted in a microplate scintillation counter. IC50 values were calculated by linear regression analysis of the percentage inhibition of the compound.
The assay has been run at room temperature on a liquid handling robot. […] After an incubation time of 45 min in the dark, the plates were transferred into a fluorescence reader for counting.
Compounds of formula (I) are assayed to measure their capacity to inhibit FGFR3 kinase as described above.

FGFR3 kinase, sequence (P22607 23-806 K650E): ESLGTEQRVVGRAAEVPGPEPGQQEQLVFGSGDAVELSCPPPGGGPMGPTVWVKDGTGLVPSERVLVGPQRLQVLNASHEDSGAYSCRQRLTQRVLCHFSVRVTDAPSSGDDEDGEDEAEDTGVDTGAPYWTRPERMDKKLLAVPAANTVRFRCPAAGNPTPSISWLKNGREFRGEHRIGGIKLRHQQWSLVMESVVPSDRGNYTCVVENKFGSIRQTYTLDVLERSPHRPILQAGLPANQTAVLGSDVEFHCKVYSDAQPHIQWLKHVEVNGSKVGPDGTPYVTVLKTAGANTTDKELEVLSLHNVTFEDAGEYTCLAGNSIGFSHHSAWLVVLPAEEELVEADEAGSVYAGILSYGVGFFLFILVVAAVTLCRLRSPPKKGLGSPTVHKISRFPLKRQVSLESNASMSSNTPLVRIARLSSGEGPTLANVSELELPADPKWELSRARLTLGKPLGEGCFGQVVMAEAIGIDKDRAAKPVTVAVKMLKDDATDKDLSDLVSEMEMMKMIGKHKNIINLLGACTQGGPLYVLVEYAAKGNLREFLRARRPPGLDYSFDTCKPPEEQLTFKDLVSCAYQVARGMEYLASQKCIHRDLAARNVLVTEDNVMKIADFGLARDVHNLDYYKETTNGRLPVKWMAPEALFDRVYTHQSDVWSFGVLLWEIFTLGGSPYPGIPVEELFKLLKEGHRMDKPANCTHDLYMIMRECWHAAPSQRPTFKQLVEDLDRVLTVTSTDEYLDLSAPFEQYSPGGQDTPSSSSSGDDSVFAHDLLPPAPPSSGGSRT

| IC50 | SMILES |
| --- | --- |
| 100 to 500 nM | COc1cc(OC)c(Cl)c(-c2ccc(C(=O)Nc3ccc(CN4CCN(C)CC4)nc3)c3ncccc23)c1Cl [Example 168, 5-(2,6-Dichloro-3,5-dimethoxy-phenyl)-quinoline-8-carboxylic acid [6-(4-methyl-piperazin-1-ylmethyl)-pyridin-3-yl]-amide] |
| 500 to 50000 nM | CCN1CCN(Cc2ccc(NC(=O)c3ccc(-c4cc(OC)cc(OC)c4)c4nccnc34)nc2)CC1 [Example 115, 8-(3,5-Dimethoxy-phenyl)-quinoxaline-5-carboxylic acid [5-(4-ethyl-piperazin-1-ylmethyl)-pyridin-2-yl]-amide] |
| 500 to 50000 nM | COc1cc(OC)cc(-c2ccc(C(=O)Nc3ccc(CN4CCNCC4)cn3)c3nccnc23)c1 [Example 117] |
| < 100 nM | COc1cc(OC)c(Cl)c(-c2ccc(C(=O)Nc3ncc[nH]3)c3ncccc23)c1Cl [Example 161, 5-(2,6-Dichloro-3,5-dimethoxy-phenyl)-quinoline-8-carboxylic acid (1H-imidazol-2-yl)-amide] |
| 100 to 500 nM | COc1cc(OC)c(F)c(-c2ccc(C(=O)Nc3cccnc3)c3nccnc23)c1F [Example 90, 8-(2,6-Difluoro-3,5-dimethoxy-phenyl)-quinoxaline-5-carboxylic acid pyridin-3-ylamide] |
| < 100 nM | COc1cc(OC)c(F)c(-c2ccc(C(=O)Nc3nc(CN4CCN(C)CC4)c[nH]3)c3nccnc23)c1F [Example 141, 8-(2,6-Difluoro-3,5-dimethoxy-phenyl)-quinoxaline-5-carboxylic acid [4-(4-methyl-piperazin-1-ylmethyl)-1H-imidazol-2-yl]-amide] |
| 500 to 50000 nM | CCN1CCN(c2ccc(NC(=O)c3ccc(-c4c(C)cccc4C)c4nccnc34)cc2)CC1 [Example 72, 8-(2,6-Dimethyl-phenyl)-quinoxaline-5-carboxylic acid [4-(4-ethyl-piperazin-1-yl)-phenyl]-amide] |
| 500 to 50000 nM | COc1cc(OC)c(Cl)c(-c2ccc(C(=O)Nc3cccnc3)c3ncc(N(C)CCN(C)C)nc23)c1Cl [Example 87, 8-(2,6-Dichloro-3,5-dimethoxy-phenyl)-2-[(2-dimethylamino-ethyl)-methyl-amino]-quinoxaline-5-carboxylic acid pyridin-3-ylamide] |
| 500 to 50000 nM | COc1cc(OC)c(Cl)c(-c2ccc(C(=O)Nc3nnc[nH]3)c3nccnc23)c1Cl [Example 17, 8-(2,6-Dichloro-3,5-dimethoxy-phenyl)-quinoxaline-5-carboxylic acid (4H-[1,2,4]triazol-3-yl)-amide] |
| 100 to 500 nM | COc1cc(OC)c(Cl)c(-c2ccc(C(=O)Nc3ccc(CN4CCS(=O)(=O)CC4)cn3)c3nccnc23)c1Cl [Example 104, 8-(2,6-Dichloro-3,5-dimethoxy-phenyl)-quinoxaline-5-carboxylic acid [5-(1,1-dioxothiomorpholin-4-ylmethyl)-pyridin-2-yl]-amide] |
| 500 to 50000 nM | COc1cc(OC)c(Cl)c(-c2ccc(C(=O)Nc3nnc[nH]3)c3ncccc23)c1Cl [Example 163] |
| 500 to 50000 nM | COc1cc(OC)c(Cl)c(-c2ccc(C(=O)Nc3ccc(O)cc3)c3nccnc23)c1Cl [Example 7, 8-(2,6-Dichloro-3,5-dimethoxy-phenyl)-quinoxaline-5-carboxylic acid (4-hydroxyphenyl)-amide] |
| 500 to 50000 nM | COc1ccc(Cl)c(-c2ccc(C(=O)Nc3ccc(OCCN(C)C)cc3)c3nccnc23)c1 [Example 65, 8-(2-Chloro-5-methoxy-phenyl)-quinoxaline-5-carboxylic acid [4-(2-dimethylamino-ethoxy)-phenyl]-amide] |
| 100 to 500 nM | CCN1CCN(Cc2ccc(NC(=O)c3ccc(-c4c(Cl)c(OC)cc(OC)c4Cl)c4cccnc34)cn2)CC1 [Example 169, 5-(2,6-Dichloro-3,5-dimethoxy-phenyl)-quinoline-8-carboxylic acid [6-(4-ethyl-piperazin-1-ylmethyl)-pyridin-3-yl]-amide] |
| < 100 nM | COc1cc(OC)c(Cl)c(-c2ccc(C(=O)Nc3ccc(CN4CCN(C)CC4)cn3)c3ncccc23)c1Cl [Example 164, 5-(2,6-Dichloro-3,5-dimethoxy-phenyl)-quinoline-8-carboxylic acid [5-(4-methyl-piperazin-1-ylmethyl)-pyridin-2-yl]-amide] |
| < 100 nM | CCN1CCN(Cc2ccc(NC(=O)c3ccc(-c4c(F)c(OC)cc(OC)c4F)c4nccnc34)cn2)CC1 [Example 88, 8-(2,6-Difluoro-3,5-dimethoxy-phenyl)-quinoxaline-5-carboxylic acid [6-(4-ethyl-piperazin-1-ylmethyl)-pyridin-3-yl]-amide] |
| 500 to 50000 nM | COc1cc(OC)c(Cl)c(-c2ccc(C(=O)Nc3nccn3Cc3ccccc3)c3ncccc23)c1Cl [Example 160, 5-(2,6-Dichloro-3,5-dimethoxy-phenyl)-quinoline-8-carboxylic acid (1-benzyl-1H-imidazol-2-yl)-amide] |
| 100 to 500 nM | COc1cc(OC)c(Cl)c(-c2ccc(C(=O)Nc3cnc[nH]3)c3ncccc23)c1Cl [Example 162, 5-(2,6-Dichloro-3,5-dimethoxy-phenyl)-quinoline-8-carboxylic acid (3H-imidazol-4-yl)-amide] |
| < 100 nM | COc1cc(OC)c(Cl)c(-c2ccc(C(=O)Nc3ccc(N4CCN(C(C)C)CC4)nc3)c3nccnc23)c1Cl [Example 33, 8-(2,6-Dichloro-3,5-dimethoxy-phenyl)-quinoxaline-5-carboxylic acid [6-(4-isopropyl-piperazin-1-yl)-pyridin-3-yl]-amide] |
| < 100 nM | COc1cc(OC)c(Cl)c(-c2ccc(C(=O)Nc3ccc(CN(C)CCN(C)C)cn3)c3nccnc23)c1Cl [Example 81, 8-(2,6-Dichloro-3,5-dimethoxy-phenyl)-quinoxaline-5-carboxylic acid (5-{[(2-dimethylamino-ethyl)-methyl-amino]-methyl}-pyridin-2-yl)-amide] |
| < 100 nM | COc1cc(OC)c(F)c(-c2ccc(C(=O)Nc3ccc(CN4CCS(=O)(=O)CC4)cn3)c3nccnc23)c1F [Example 140, 8-(2,6-Difluoro-3,5-dimethoxy-phenyl)-quinoxaline-5-carboxylic acid [5-(1,1-dioxo-thiomorpholin-4-ylmethyl)-pyridin-2-yl]-amide] |
| < 100 nM | COc1cc(OC)c(F)c(-c2ccc(C(=O)Nc3ccc(CN4CCN(C)CC4)nc3)c3nccnc23)c1F [Example 89, 8-(2,6-Difluoro-3,5-dimethoxy-phenyl)-quinoxaline-5-carboxylic acid [6-(4-methyl-piperazin-1-ylmethyl)-pyridin-3-yl]-amide] |
| 500 to 50000 nM | COc1cc(OC)c(Cl)c(-c2ccc(C(=O)Nc3ccn(CCN(C)C)c3)c3nccnc23)c1Cl [Example 121, 8-(2,6-Dichloro-3,5-dimethoxy-phenyl)-quinoxaline-5-carboxylic acid [1-(2-dimethylamino-ethyl)-1H-pyrrol-3-yl]-amide] |
| < 100 nM | COc1cc(OC)c(Cl)c(-c2ccc(C(=O)Nc3ccc(OCCN(C)C)cc3)c3nccnc23)c1Cl [Example 5, 8-(2,6-Dichloro-3,5-dimethoxy-phenyl)-quinoxaline-5-carboxylic acid [4-(2-dimethylamino-ethoxy)-phenyl]-amide] |
| 100 to 500 nM | CCN1CCN(Cc2ccc(NC(=O)c3ccc(-c4c(Cl)c(OC)cc(OC)c4Cl)c4cccnc34)nc2)CC1 [Example 165, 5-(2,6-Dichloro-3,5-dimethoxy-phenyl)-quinoline-8-carboxylic acid [5-(4-ethyl-piperazin-1-ylmethyl)-pyridin-2-yl]-amide] |
| 500 to 50000 nM | COc1cc(OC)c(Cl)c(-c2ccc(C(=O)Nc3ccc(CN4CCNCC4)nc3)c3ncccc23)c1Cl [Example 171, 5-(2,6-Dichloro-3,5-dimethoxy-phenyl)-quinoline-8-carboxylic acid (6-piperazin-1-ylmethyl-pyridin-3-yl)-amide] |
| < 100 nM | CCN1CCN(c2ccc(NC(=O)c3ccc(-c4c(Cl)c(OC)cc(OC)c4Cl)c4nccnc34)cc2)CC1 [Example 1, 8-(2,6-Dichloro-3,5-dimethoxy-phenyl)-quinoxaline-5-carboxylic acid [4-(4-ethylpiperazin-1-yl)-phenyl]-amide] |

| SMILES | IC50 |
| --- | --- |
| COc1cc(OC)c(Cl)c(-c2ccc(C(=O)Nc3ccc(N(C)C4CCN(C)CC4)nc3)c3nccnc23)c1Cl [Example 37, 8-(2,6-Dichloro-3,5-dimethoxy-phenyl)-quinoxaline-5-carboxylic acid {6-[methyl-(1-methyl-piperidin-4-yl)-amino]-pyridin-3-yl}-amide] | < 100 nM |
